Where a SMILES comes first, the peptide text is derived from it. Bridges are numbered along the chain shown (N, C = ends). Roman numbers before positions name the chains, in order. [ ]: non-standard residue; d: D form. Met(O) = CS(=O)CC[C@H](N)C(=O)O
Target: T1, trypsin (bovine pancreas trypsin, Type I) (Bos taurus, UniProt P00760)
T1 construct: purchased Sigma Chemicals T 8003; host or cells: bovine pancreas
T1 sequence (P00760 24-246): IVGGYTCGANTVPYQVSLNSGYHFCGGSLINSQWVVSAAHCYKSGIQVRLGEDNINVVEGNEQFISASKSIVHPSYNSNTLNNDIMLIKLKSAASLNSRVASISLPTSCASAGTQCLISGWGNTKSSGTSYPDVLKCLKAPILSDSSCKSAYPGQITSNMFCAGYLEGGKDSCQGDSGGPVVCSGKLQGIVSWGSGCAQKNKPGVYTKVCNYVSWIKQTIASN
Experiment: Competitive inhibition of tryptic hydrolysis of Nα-benzoyl-D,L-arginine-p-nitroanilide
Type: biochemical
Description: The inhibition observed was 55 percent at 5 mg/ml.
For these assays, 50 μl of dimeric oligopeptide mixture set solutions in water (0.5-5 mM) were added to 0.1 M Tris-HCl containing 0.025 M CaCl2, pH 7.8 (100 μl), to which were added 15 μl of trypsin (bovine pancreas trypsin, Type I; Sigma Chemicals T 8003; 0.05 mg/ml in 0.02 N HCl ). The solution was maintained for 30 minutes, and the above substrate (N^α -benzoyl-D,L-arginine-p-nitroanitide) was added (100 μl, 1 mg/ml in water). Absorbances at 405 nm were read using a Titertek multichannel photometer after another 30 minutes had elapsed and were expressed as a percentage of the control (absorbance of a solution without peptide).

- IC50: 53 µM
SMILES: CC(=O)N[C@@H](CC[S+](C)[O-])C(=O)N[C@@H](CSSC[C@H](NC(=O)[C@H](CC[S+](C)[O-])NC(C)=O)C(=O)N[C@@H](Cc1c[nH]c2ccccc12)C(=O)N[C@@H](CCCNC(=N)N)C(N)=O)C(=O)N[C@@H](Cc1c[nH]c2ccccc12)C(=O)N[C@@H](CCCNC(=N)N)C(N)=O (stereo partly shown) [SEQ ID NO:4] (I: Ac-[Met(O)]CWR-NH2 / II: Ac-[Met(O)]CWR-NH2; disulfide I:2-II:2)

From patent publication US6287787A, “Dimeric oligopeptide mixture sets” (Torrey Pines Institute for Molecular Studies, priority 1993, dated 2001)
